Assay: refractive index (Na D-line) (dimensionless); xn = mol fraction of the nth substance listed
Conditions: 100 kPa, Liquid, Standard Abbe refractometry

CCOS(=O)(=O)[O-].CCn1cc[n+](C)c1 [1-ethyl-3-methylimidazolium ethyl sulfate] + CCCCCCO
refractive index
Conditions | x1 = 0.1016 | x1 = 0.2016 | x1 = 0.3005 | x1 = 0.3989 | x1 = 0.4975 | x1 = 0.5956 | x1 = 0.6647 | x1 = 0.7947 | x1 = 0.897 | x1 = 1
288.15 K | 1.42855 | 1.43639 | 1.44364 | 1.45017 | 1.45653 | 1.46223 | 1.46592 | 1.47274 | 1.47731 | 1.48155
293.15 K | 1.42666 | 1.4346 | 1.44194 | 1.44856 | 1.45499 | 1.46075 | 1.46447 | 1.47132 | 1.47593 | 1.48018
298.15 K | 1.42478 | 1.43283 | 1.44025 | 1.44701 | 1.45346 | 1.45927 | 1.46303 | 1.4699 | 1.47456 | 1.47882
303.15 K | 1.4229 | 1.43107 | 1.43858 | 1.44545 | 1.45193 | 1.4578 | 1.4616 | 1.46848 | 1.4732 | 1.47746
308.15 K | 1.42103 | 1.42932 | 1.43692 | 1.44387 | 1.4504 | 1.45631 | 1.46017 | 1.46706 | 1.47182 | 1.47611
313.15 K | 1.41917 | 1.42758 | 1.43525 | 1.44225 | 1.44886 | 1.45481 | 1.45872 | 1.46564 | 1.47044 | 1.47474
318.15 K | 1.41729 | 1.42582 | 1.43358 | 1.44065 | 1.44735 | 1.45333 | 1.45726 | 1.46423 | 1.46907 | 1.47341
323.15 K | 1.41543 | 1.42407 | 1.43195 | 1.4391 | 1.44582 | 1.45184 | 1.45582 | 1.46285 | 1.46769 | 1.47206

CCOS(=O)(=O)[O-].CCn1cc[n+](C)c1 [1-ethyl-3-methylimidazolium ethyl sulfate] + CN1CCCC1=O
refractive index
Conditions | 288.15 K | 293.15 K | 298.15 K | 303.15 K | 308.15 K | 313.15 K | 318.15 K | 323.15 K | 328.15 K | 333.15 K
x1 = 0.1009 | 1.47616 | 1.47418 | 1.47223 | 1.47026 | 1.46833 | 1.46634 | 1.4644 | 1.46246 | 1.46054 | 1.45863
x1 = 0.2012 | 1.47863 | 1.47679 | 1.47496 | 1.47313 | 1.4713 | 1.46948 | 1.46772 | 1.4659 | 1.46409 | 1.46232
x1 = 0.3021 | 1.47981 | 1.47807 | 1.47633 | 1.4746 | 1.47285 | 1.47118 | 1.4695 | 1.46777 | 1.46607 | 1.46438
x1 = 0.4012 | 1.48047 | 1.47881 | 1.47714 | 1.47547 | 1.47384 | 1.47225 | 1.47069 | 1.46906 | 1.46742 | 1.46584
x1 = 0.4973 | 1.48086 | 1.47925 | 1.47766 | 1.47608 | 1.47453 | 1.473 | 1.47143 | 1.46985 | 1.46828 | 1.46677
x1 = 0.596 | 1.48094 | 1.47939 | 1.47787 | 1.47635 | 1.47488 | 1.47343 | 1.47195 | 1.47045 | 1.46895 | 1.46746
x1 = 0.6998 | 1.48099 | 1.47951 | 1.47804 | 1.47659 | 1.47517 | 1.47375 | 1.47229 | 1.47084 | 1.46939 | 1.46794
x1 = 0.7961 | 1.48127 | 1.47983 | 1.47841 | 1.47701 | 1.47561 | 1.47423 | 1.47284 | 1.47143 | 1.47005 | 1.46865
x1 = 0.8821 | 1.48147 | 1.48006 | 1.47867 | 1.47728 | 1.47592 | 1.47453 | 1.47317 | 1.4718 | 1.47044 | 1.4691
x1 = 1 | 1.48155 | 1.48018 | 1.47882 | 1.47746 | 1.47611 | 1.47474 | 1.47341 | 1.47206 | 1.47075 | 1.46943
